Data published in PMC7810383 (Science Advances, 2021).
Peptide text beside a SMILES is read from it. * marks the point of attachment. Cbz = O=C(OCc1ccccc1)*; CH2F = FC*

What was measured:
BIRC2 = format: cell-based, human
[1] = test system: PARP cleavage in HeLa cells; format: cell-based, human; conditions: NAA10 RNAi 72 hours, Z-VAD-FMK 40 μM, anti-PARP immunoblot
XIAP = format: biochemical, human
[2] = test system: IAPs (BIRC2, BIRC3, XIAP, BIRC6); format: binding, human
hGID/CTLH complex = format: binding, human; conditions: peptide on streptavidin beads, HeLa lysate, quantitative MS

Compound | Ubiquitination of streptavidin-bound peptide by XIAP (anti-ubiquitin immunoblot) (XIAP) | IAP enrichment in peptide pull-down, Nt-free versus Nt-Ac peptide [2] | further results
CN[C@@H](C)C(=O)N[C@H](C(=O)N1CCC[C@H]1c1nc(C(=O)c2ccc(F)cc2)cs1)C1CCCCC1 [LCL161] |  |  | BIRC2 levels (BIRC2): IAP depletion
COC(=O)C[C@H](NC(=O)[C@H](C)NC(=O)[C@@H](NC(=O)OCc1ccccc1)C(C)C)C(=O)CF [Z-VAD, Benzyloxycarbonyl-Val-Ala-Asp-fluoromethyl ketone] (Cbz-Val-Ala-Asp(OMe)-CH2F) |  |  | PARP cleavage induced by NatA RNAi [1]: inhibited
Ac or H-AAAGAAATHLKK-K-(Biotin)-NH2 [PIGS Nt-Ac biotinylated peptide] | not ubiquitinated |  | 
Ac or H-AQFAFESDLHSLLQL-PEG-K(Biotin)-CONH2 [CDC20 Nt-Ac biotinylated peptide] |  | no enrichment | 
H-AAAGAAATHLKK-K-(Biotin)-NH2 [PIGS Nt-free biotinylated peptide] | not ubiquitinated | no IAP enrichment | 
H-AAPEEHDSPTKK-K-(Biotin)-NH2 [DDX47 Nt-free biotinylated peptide] | strongly ubiquitinated | identified IAPs as binding partners | 
H-AAPWRRWPTGKK-K-(Biotin)-NH2 [TMEM223 Nt-free biotinylated peptide] |  | identified IAPs as binding partners | 
H-AISSSSCELPLVAVF-PEG-K(Biotin)-CONH2 [NIT1 Nt-free biotinylated peptide] |  | strongly enriched | 
H-APPSVFAEVPQAQPV-PEG-K(Biotin)-CONH2 [GOT1 Nt-free biotinylated peptide] |  | no IAP enrichment | 
H-AQFAFESDLHSLLQL-PEG-K(Biotin)-CONH2 [CDC20 Nt-free biotinylated peptide] |  | robust interactions | 
H-ASVGECPAPVKK-K-(Biotin)-NH2 [ATP5J2 Nt-free biotinylated peptide] |  | identified IAPs as binding partners | 
H-ATPFQEGLRTFKKK-K(Biotin)-NH2 [CASP9 Nt-free biotinylated peptide, reference compound] | levels that were comparable | preferential binding partners | 
H-AVGKNKRLTKK-K-FITC [RPS3A Nt-free peptide] |  | no IAP enrichment | 
H-AVPAALILREKK-K(Biotin)-NH2 [COMMD10 Nt-free biotinylated peptide] | strongly ubiquitinated | strongly enriched | hGID/CTLH complex enrichment in peptide pull-down (hGID/CTLH complex): also enriched
H-AVPIAQKSEPFKKK-K(Biotin)-NH2 [DIABLO Nt-free biotinylated peptide, reference compound] | levels that were comparable | preferential binding partners | 
H-AVPSPPPASPKK-K(Biotin) [HTRA2 Nt-free biotinylated peptide, reference compound] |  | preferential binding partners | 
H-MAVPAALILREKK-K(Biotin) [Met-COMMD10 Nt-free biotinylated peptide] |  | did not enrich IAPs | 
H-MDDDIAALVVKKK-PEG-(Biotin) [ACTB Nt-free biotinylated peptide] |  | did not enrich IAPs | 
H-MEELIVELRLKKK-PEG-(Biotin) [AFAP1 Nt-free biotinylated peptide] |  | did not enrich IAPs | 
